# According to patent US8680014B2, “Methods for improving fruit production and fruit quality” (Washington State University Research Foundation, priority 2010, dated 2014):
# Entries after “also recorded” stand apart in the source; their conditions may differ. Marks after values point to notes of the source that are not given here.
# Experiments:
# [1] = tested on: sweet cherry cultivar ‘Chelan’; assay: Autumn application of BABA, natural frost damage the following spring; type: in vivo, sweet cherry (Prunus avium)
# Text: (§1) Application of BABA to sweet cherry cultivars ‘Bing,’ ‘Chelan,’ and ‘Van’ in autumn decreased the percentage of flowers killed after natural frost damage the following spring (FIG. 3). […] Bing after spring frost damage (FIG. 4).
# [2] = tested on: sweet cherry cultivar ‘Bing’; assay: as above; type: in vivo, sweet cherry (Prunus avium)
# Text: as §1
# [3] = tested on: sweet cherry cultivar ‘Van’; assay: as above; type: in vivo, sweet cherry (Prunus avium)
# Text: as §1
# [4] = tested on: plum cv. ‘PP7524-7’; assay: BABA application in the spring 4-7 days prior to frost exposure; type: in vivo; details: application 4-7 days prior to frost; following spring frost damage
# Text: Finally, BABA application in the spring 4-7 days prior to frost exposure increased fruit set in plum cv. ‘PP7524-7’ following spring frost damage (FIG. 5).
# [5] = tested on: Sweet cherry cv. ‘Bing’ trees; assay: BABA spray in the field; flower fate of limbs in programmable freeze chamber; fruit set, fruit size, leaf area, leaf chlorophyll on other limbs; type: in vivo, sweet cherry (Prunus avium)
# Protocol: Sweet cherry cv. ‘Bing’ trees were sprayed in the field with BABA and the fate of flowers from randomly selected sample limbs placed in a programmable freeze chamber was evaluated. Random limbs were removed from the freeze chamber within 10 minutes of reaching selected air temperatures, and were left at room temperature for 1 hour. Pistil/ovary survival was then assessed visually on every flower. Flowers with healthy green stylar and ovary tissue were rated as live. Flowers with discolored (for example, brown) stylar or ovary tissues were rated as dead. Fruit set, fruit size, average leaf area, and leaf chlorophyll content index were evaluated on other limbs of the treated trees.
# [6] = tested on: ‘Fuji’ apple trees; assay: BABA at different bud development stages; branches in programmable freeze chamber five days later; type: in vivo, apple (Malus domestica); details: treated 5 days before cold exposure; all developmental stages, except for full opened flowers; compared to control
# Protocol: BABA was also applied to ‘Fuji’ apple trees at different bud development stages. Five days later, treated and untreated (control) branches were collected and placed in a programmable freeze chamber. Flowers killed were evaluated as described above. BABA decreased the percentage of flowers killed as compared to control at all developmental stages, except for full opened flowers (FIG. 2).
# [7] = tested on: sweet cherry cultivar ‘Tieton’; assay: CPA applied at full bloom; fruit set and fruit size at harvest; type: in vivo, sweet cherry (Prunus avium); details: 30 ppm CPA at full bloom
# [8] = tested on: sweet cherry cv. ‘Bing’; assay: as above; type: in vivo, sweet cherry (Prunus avium)
# Protocol: Plant growth regulators were applied to limbs of sweet cherry cv. ‘Bing’ at full bloom when essentially all flowers were open. Fruit set was recorded as a percent of available flowers from flower counts made prior to application and fruit counts made just prior to harvest. Fruit set in trees treated with 4-chlorophenoxyacetic acid (CPA) at 10 or 30 ppm was higher than untreated control in both small and large scale trials (FIG. 18). […] (Table 2).
# [9] = tested on: sweet cherry cultivar ‘8011-3’; assay: as above; type: in vivo, sweet cherry (Prunus avium); details: 30 ppm CPA at full bloom
# [10] = tested on: sweet cherry cv ‘Bing’ on ‘Gisela® 1’ rootstock; assay: Experiment 1: limb trial of PCa and GAs alone or in combination, applied 30 days after anthesis; type: in vivo, sweet cherry (Prunus avium); details: for Firmness / Fruit diameter / Fruit weight / TSS: applied at 30 days after anthesis, PCa 150 mg/L, GAs 30 mg/L, at harvest
# Protocol: (§2) A limb trial was conducted to evaluate effects of bioactive gibberellins (GA), prohexadione-calcium (PCa), or combinations applied before harvest on fruit quality of sweet cherry. The most efficacious treatments were utilized in a larger scale trial to investigate their effects on the whole tree scale and postharvest characteristics of fruit. Twelve-year-old sweet cherry cv ‘Bing’ on ‘Gisela® 1’ rootstock was selected for both experiments and trained to a central leader architecture. Both trials were carried out at Washington State University Roza farm, Prosser, Wash., USA (N 46.2°, W 119.7°).
# Three limbs with uniform vigor were selected from each of 10 trees. Treatments were applied to the limbs randomly spread across ten trees at 30 days after anthesis, approximately coinciding with the onset of pit hardening (stage II of fruit development) in ‘Bing’. The experiment consisted of 10 treatments, including water (the untreated control) and PCa at 150 mg/L. Bioactive GA1, GA3, and GA4/7 (70:30 GA4:GA7) were applied as a foliar spray at 30 mg/L alone or in combination with PCa at 150 mg/L. In addition, the combination of GA3 and GA4/7 at 30 mg/L was applied, or in combination with PCa at 150 mg/L. PCa was the commercial product Apogee® (27.5% PCa; BASF Corp., Research Triangle Park, N.C.) and all bioactive GAs (purity >90%) were purchased from OlChemIm Ltd. (Olomouc, Czech Republic). Each treatment was made with a pressurized handgun sprayer to entire limbs, ceasing at the first runoff.
# Twenty fruit per treatment were randomly selected and flagged for monitoring fruit growth by measuring fruit equatorial diameter and height weekly after treatment. All current-season shoots on treated limbs were measured weekly to investigate treatment effects on shoot growth. Harvest timing was determined as the day when the majority of fruit had achieved commercial maturity, based on exocarp color. At harvest, all fruit on treated limbs were harvested and transported to the laboratory for fruit quality analysis. Floral bud density on the treated limbs was assessed by counting all spurs and the number of reproductive buds per spur.
# All fruit from each limb in Experiment 1 and sub-samples from Experiment 2 were weighed individually and fruit size distribution was calculated according to fruit weight. Color sorting was conducted manually according to the color comparators developed by CTIFL (Centre Technique Interprofessionnel des Fruit et Legumes, France), which categorize cherry color into 8 levels from Green, CTIFL 1 to CTIFL 7. Fruit number in each category was counted and color distribution was assessed. Subsequently, all fruit were analyzed for firmness and row size measurement with a FirmTech 2 (BioWorks, Inc, Wamego, Kans.) at room temperature. Then, 25 fruit were randomly selected and 5 groups of 5 fruit were mixed for soluble solids content, pH and titratable acidity measurement. Fruit soluble solids were measured using a digital refractometer (Atago, Japan). Approximately 0.5 mL of juice was dropped directly onto the surface of the refractometer and the measurement immediately taken. Juice pH and titratable acidity were measured with a Mettler DL12 Titrator (Mettler-Toledo, Columbus, Ohio).
# All trials were established as randomized complete-block designs. All data were subjected to analysis of variance using the General Linear Models (GLM) program of the SAS statistical analysis package (SAS Institute, Cary, N.C.).
# [11] = tested on: sweet cherry cv ‘Bing’ on ‘Gisela® 1’ rootstock; assay: Experiment 2: whole tree trial of PCa alone or with GA3 or GA4/7, applied 30 (FS) or 37 (SS) days after anthesis; fruit quality, storability, sensory analysis; type: in vivo, sweet cherry (Prunus avium)
# Protocol: as §2
# Experiment 2 included treatments at the whole tree level. Applications of GA3 or GA4/7 (70:30 GA4:GA7) were made to entire trees at 30 mg/L in combination with PCa at 150 mg/L. PCa (150 mg/L) alone was also applied and an untreated control treatment was included. To investigate the role of application timing of plant growth regulators, all treatments were applied at 30 (first spray (FS)) or 37 days after anthesis (second spray (SS)). In this experiment, 24 trees in the same orchard as those in Experiment 1 were selected for whole tree treatment and assigned randomly into one of two 12-tree groups for the timing study. Treatments were then randomly assigned to each of three trees per application timing. Treatments were applied to entire trees by pressurized handgun sprayer to the point of first runoff. All applications were completed in the morning between 0800 and 1100, and applied on days with little or no wind. To prevent spray drift onto neighboring experimental units, all the trees were selected in the same row and 2-3 trees were selected as ‘border’ trees between experimental units.
# Twenty fruit per treatment were marked for weekly fruit size measurement, and six current terminal shoots were selected for monitoring shoot growth weekly after treatment. […] Whole tree yield was determined at harvest, in the field, with a portable digital scale. The effect of treatment on total yield per tree (kg tree^−1) and the yield of large fruit (29.8 mm+) (kg tree^−1) was assessed. […]
# All fruit from each limb in Experiment 1 and sub-samples from Experiment 2 were weighed individually and fruit size distribution was calculated according to fruit weight. […] Fruit number in each category was counted and color distribution was assessed. Subsequently, all fruit were analyzed for firmness and row size measurement with a FirmTech 2 (BioWorks, Inc, Wamego, Kans.) at room temperature. […] Fruit soluble solids were measured using a digital refractometer (Atago, Japan). […] Juice pH and titratable acidity were measured with a Mettler DL12 Titrator (Mettler-Toledo, Columbus, Ohio). […]
# [12] = BABA at both concentrations (100 and 500 ppm), compared to control
smiles,measurement,setting,value
"CC(N)CC(=O)O (racemic) [BABA, DL-β-aminobutyric acid]",percentage of flowers killed,[1],decreased
same,pistil survival,[2]; after spring frost damage,increased
same,percentage of flowers killed,[2]; natural frost the following spring,decreased
same,percentage of flowers killed,[3],decreased
same,fruit set,[4],increased
same,percentage of flowers killed,"[5]; 100 ppm BABA, −3.5° C. and −4.5° C., compared to control (untreated) trees",decreased
same,percentage of flowers killed,"[5]; 500 ppm BABA, compared to control",decreased
same,average leaf area,[5]; [12],increased
same,fruit set,[5]; [12],increased
same,fruit size,[5]; [12],increased
same,leaf chlorophyll content index,[5]; [12],increased
same,percentage of flowers killed,[6],decreased
"O=C(O)COc1ccc(Cl)cc1 [4-CPA, 4-chlorophenoxyacetic acid]",Average fruit size,"[7]; at harvest, untreated 7.2",8.6 g
same,Fruit Set (%),[7]; untreated 26.0,35.0%
same,fruit set compared with untreated control,"[8]; CPA at 10 or 30 ppm at full bloom, small and large scale trials (FIG. 18)",higher
same,Fruit Set (%),"[8]; ‘Bing’, 30 ppm CPA applied to the flowers at full bloom, untreated 30.0",58.0%
same,Average fruit size,"[8]; ‘Bing’, 30 ppm CPA at full bloom, at harvest, untreated 7.3",8.4 g
same,Average fruit size,"[9]; at harvest, untreated 10.5",13.6 g
same,Fruit Set (%),[9]; untreated 7.0,16.0%
"C=C1C[C@]23C[C@@]1(O)CC[C@H]2[C@@]12CC[C@H](O)[C@@](C)(C(=O)O1)[C@H]2[C@@H]3C(=O)O [GA1, gibberellin A1]",Firmness,[10],280.2^c g/mm
same,Fruit diameter,[10],26.52^bc mm
same,Fruit weight,[10],8.44^bc g
same,TSS,[10],20.84^b Brix
"C=C1C[C@]23C[C@@]1(O)CC[C@H]2[C@@]12C=C[C@H](O)[C@@](C)(C(=O)O1)[C@H]2[C@@H]3C(=O)O [GA3, gibberellin A3]",Firmness,[10],316.9^a g/mm
same,Fruit diameter,[10],26.49^bc mm
same,Fruit weight,[10],8.23^cd g
same,TSS,[10],22.23^a Brix
"CCC(=O)C1=C(O)CC(C(=O)O)CC1=O (stereo not shown) [PCa, calcium 3-oxido-4-propionyl-5-oxo-cyclohexene carboxylate]",Firmness,[10],278.3^c g/mm
same,Fruit diameter,[10],24.75^f mm
same,Fruit weight,[10],7.26^f g
same,TSS,[10],19.18^cd Brix
same,effect on fruit weight / fruit size compared with the untreated control,"[10]; limb trial, single application at 30 days after anthesis",no positive effect
same,length of current season extension shoots relative to untreated,"[10]; single application, after terminal bud set (FIG. 8)",less than half the length
same,fruit categorized as healthy after storage,"[11]; 30 days at 4° C., spray timing not stated, 5% for untreated trees",< 10%
same,increase in fruit in the ≧10 g category compared to the control,[11]; both first and second spray timings,15%
same,percentage of fruit with green and turgid pedicels after storage,"[11]; first spray treatments, control 30%",24%
same,shoot growth / vegetative extension growth,"[11]; single spray, irrespective of timing, compared with the control and PCa+GAs",reduced; also recorded: reductions
